Values quoted from earlier work as cited in PubChem BioAssay AID1259409 (Chemical Carcinogenesis Research Information System (CCRIS), 2018).

Test system: rodent chemically induced tumor inhibition, incidence and multiplicity
Assay: CCRIS tumor inhibitor studies
Conditions: for outcome: Carcinogen: 7,12-Dimethylbenz(a)anthracene, Route [Inhibitor]: Oral (gavage), Species: Rat, Strain/Sex: (16/Group), Target Tissue: Type of Lesion: Mammary Gland: tumor, Dose [Carcinogen]: 100 mg/kg once at 50 days of age, Promoter: None

## NC(=O)CC[C@H](N)C(=O)O
57-97-6, Dose [Inhibitor]: 0, 1 g/kg/day for 4 wks, study duration 4 wks
  outcome: 93.8%, 31.2%
57-97-6, Dose [Inhibitor]: 0, 1 g/kg/day for 11 wks, study duration 11 wks
  outcome: 93.8%, 43.7%

## c1cc2c(cc1[C@H]1OC[C@@H]3[C@H]1CO[C@H]3c1ccc3c(c1)OCO3)OCO2
Carcinogen: 4-NITROQUINOLINE-N-OXIDE, 56-57-5, Dose [Inhibitor]: 0, 2.5 MG/100 ML DRINKING WATER (TOTAL WEEKLY DOSE 1.26 MG) FOR 25 WK BEGINNING 5 WK POST CARCINOGEN DOSE (STUDY DURATIO, Route [Inhibitor]: ORAL, Species: MOUSE, Strain/Sex: ICR/FEMALE, Target Tissue: Type of Lesion: LUNG: TUMOR, Dose [Carcinogen]: 0.3 MG ONCE, Promoter: GLYCEROL, 56-81-5
  tumour outcome (control, treated, inhibition, significance): 87%, 47%, 46%, p<0.05
Carcinogen: 7,12-DIMETHYLBENZ[A]ANTHRACENE, 57-97-6, Dose [Inhibitor]: 0, 85 NMOL IN 0.1 ML ACETONE 2/WK FOR 20 WK APPLIED 1 HR PRIOR TO EACH PROMOTER DOSE (STUDY DURATION: 20 WK), Route [Inhibitor]: DERMAL, Species: MOUSE, Strain/Sex: ICR/FEMALE, Target Tissue: Type of Lesion: SKIN: PAPILLOMA, Dose [Carcinogen]: 100 UG IN 0.1 ML ACETONE ONCE, Promoter: 12-O-TETRADECANOYLPHORBOL-13-ACETATE, 16561-29-8
  tumour outcome (control, treated, inhibition, significance): 100%, 85%, 15%, not calculated

## CCCCCCCCCCCC
Carcinogen: 4-(METHYLNITROSAMINO)-1-(3-PYRIDYL)-1-BUTANONE, 64091-91-4, Dose [Inhibitor]: 0, 1 UMOL IN 0.1 ML CORN OIL ONCE 2 HR PRIOR TO CARCINOGEN DOSE (STUDY DURATION: 16 WK), Route [Inhibitor]: GAVAGE, Species: MOUSE, Strain/Sex: STRAIN-A/FEMALE, Target Tissue: Type of Lesion: LUNG: ADENOMA, Dose [Carcinogen]: 10 UMOL IN 0.1 ML SALINE ONCE, Promoter: NONE USED
  tumour outcome (control, treated, inhibition, significance): 100%, 100%, 0%, not significant

## CCCCCCCc1ccco1
Carcinogen: BENZO[A]PYRENE, 50-32-8, Dose [Inhibitor]: 0, 25 UMOL IN 0.2 ML COTTONSEED OIL 3/WK FOR 4 WK BEGINNING 1 DAY PRIOR TO FIRST CARCINOGEN DOSE AND TERMINATING 1 DAY A, Route [Inhibitor]: GAVAGE, Species: MOUSE, Strain/Sex: STRAIN-A/FEMALE, Target Tissue: Type of Lesion: FORESTOMACH: TUMOR, Dose [Carcinogen]: 1 MG 2/WK FOR 4 WK, Promoter: NONE USED
  tumour outcome (control, treated, inhibition, significance): 14/17 (82%), 10/15 (66%), 20%, not significant
Carcinogen: BENZO[A]PYRENE, 50-32-8, Dose [Inhibitor]: 0, 25 UMOL IN 0.2 ML COTTONSEED OIL 3/WK FOR 4 WK BEGINNING 1 DAY PRIOR TO FIRST CARCINOGEN DOSE AND TERMINATING 1 DAY A, Route [Inhibitor]: GAVAGE, Species: MOUSE, Strain/Sex: STRAIN-A/FEMALE, Target Tissue: Type of Lesion: LUNG: TUMOR, Dose [Carcinogen]: 1 MG 2/WK FOR 4 WK, Promoter: NONE USED
  tumour outcome (control, treated, inhibition, significance): 17/17 (100%), 15/15 (100%), 0%, not significant
Carcinogen: BENZO[A]PYRENE, 50-32-8, Dose [Inhibitor]: 0, 50 UMOL IN 0.2 ML COTTONSEED OIL 3/WK FOR 4 WK BEGINNING 1 DAY PRIOR TO FIRST CARCINOGEN DOSE AND TERMINATING 1 DAY A, Route [Inhibitor]: GAVAGE, Species: MOUSE, Strain/Sex: STRAIN-A/FEMALE, Target Tissue: Type of Lesion: FORESTOMACH: TUMOR, Dose [Carcinogen]: 1 MG 2/WK FOR 4 WK, Promoter: NONE USED
  tumour outcome (control, treated, inhibition, significance): 14/17 (82%), 9/12 (75%), 8%, not significant
Carcinogen: BENZO[A]PYRENE, 50-32-8, Dose [Inhibitor]: 0, 50 UMOL IN 0.2 ML COTTONSEED OIL 3/WK FOR 4 WK BEGINNING 1 DAY PRIOR TO FIRST CARCINOGEN DOSE AND TERMINATING 1 DAY A, Route [Inhibitor]: GAVAGE, Species: MOUSE, Strain/Sex: STRAIN-A/FEMALE, Target Tissue: Type of Lesion: LUNG: TUMOR, Dose [Carcinogen]: 1 MG 2/WK FOR 4 WK, Promoter: NONE USED
  tumour outcome (control, treated, inhibition, significance): 17/17 (100%), 12/12 (100%), 0%, not significant

## C=CC(C)(O)CC/C=C(\C)CCC=C(C)C (stereo not drawn)
Carcinogen: AZOXYMETHANE, 25843-45-2, Dose [Inhibitor]: 0, 5 MG/G IN DIET FOR 22 WK BEGINNING 3 D POST LAST CARCINOGEN DOSE (STUDY DURATION: 25 WK), Route [Inhibitor]: ORAL, Species: RAT, Strain/Sex: F344/MALE, Target Tissue: Type of Lesion: DUODENUM: ADENOCARCINOMA, Dose [Carcinogen]: 15 MG/KG BW 2/WK FOR 3 WK, Promoter: NONE USED
  tumour outcome (control, treated, inhibition, significance): 50%, 26%, 48%, not significant

## CCN1CCCC1CNC(=O)c1cc(S(N)(=O)=O)ccc1OC (stereo not drawn)
Carcinogen: N-METHYL-N'-NITRO-N-NITROSOGUANIDINE, 70-25-7, Dose [Inhibitor]: 0, 30 MG/KG 1/2 D BEGINNING 1 WK POST CARCINOGEN TREATMENT AND CONTINUING FOR DURATION OF STUDY (STUDY DURATION: 52 WK), Route [Inhibitor]: SUBCUTANEOUS, Species: RAT, Strain/Sex: WISTAR/MALE, Target Tissue: Type of Lesion: STOMACH: ADENOCARCINOMA, Dose [Carcinogen]: 50 UG/ML IN DRINKING WATER FOR 25 WK, Promoter: NONE USED
  tumour outcome (control, treated, inhibition, significance): 13/18 (72%), 11/18 (61%), 15%, not significant
Carcinogen: N-METHYL-N'-NITRO-N-NITROSOGUANIDINE, 70-25-7, Dose [Inhibitor]: 0, 30 MG/KG IN 2 ML/KG 0.9% NACL 1/2 D FOR STUDY DURATION BEGINNING POST CARCINOGEN TREATMENT (STUDY DURATION: 52 WK), Route [Inhibitor]: SUBCUTANEOUS, Species: RAT, Strain/Sex: WISTAR/MALE, Target Tissue: Type of Lesion: GLANDULAR STOMACH: ADENOCARCINOMA, Dose [Carcinogen]: 50 UG/ML DRINKING WATER FOR 25 WK
  tumour outcome (control, treated, inhibition, significance): 13/18 (72%), 11/18 (61%), 15%, not significant

## CC(=O)O[C@@H]1C(=O)O[C@H]2[C@@H]1OC(=O)[C@@H]2OC(C)=O
Carcinogen: 2-(ACETYLAMINO)FLUORENE, 6292-55-3, Dose [Inhibitor]: 1.2% IN DIET SIMULTANEOUSLY WITH CARCINOGEN (STUDY DURATION: 30 WK), Route [Inhibitor]: ORAL, Species: RAT, Strain/Sex: WISTAR/MALE, Target Tissue: Type of Lesion: URINARY BLADDER: TUMOR, Dose [Carcinogen]: 0.04% IN DIET SUPPLEMENTED WITH 1.4% D,L-TRYPTOPHAN, Promoter: NONE USED
  tumour outcome (control, treated, inhibition, significance): 7/45 (20%), 11/40 (28%), -40%, not calculated
Carcinogen: 2-(ACETYLAMINO)FLUORENE, 6292-55-3, Dose [Inhibitor]: 1.2% IN DIET SIMULTANEOUSLY WITH CARCINOGEN (STUDY DURATION: 30 WK), Route [Inhibitor]: ORAL, Species: RAT, Strain/Sex: WISTAR/MALE, Target Tissue: Type of Lesion: URINARY BLADDER: TUMOR, Dose [Carcinogen]: 0.04% IN VITAMIN B6 DEFICIENT DIET, Promoter: NONE USED
  tumour outcome (control, treated, inhibition, significance): 6/33 (18%), 2/38 (5%), 72%, not calculated
Carcinogen: 7,12-DIMETHYLBENZ[A]ANTHRACENE, 57-97-6, Dose [Inhibitor]: 400 MG/KG, 30 MIN BEFORE DMBA TREATMENT AND 3 HR AFTER DMBA TREATMENT (STUDY DURATION: 36 WK), Route [Inhibitor]: INTRAGASTRIC, Species: RAT, Strain/Sex: SPRAGUE-DAWLEY/FEMALE, Target Tissue: Type of Lesion: MAMMARY GLAND: TUMOR, Dose [Carcinogen]: 130 MG/KG ONCE, Promoter: NONE USED
  tumour outcome (control, treated, inhibition, significance): 92%, 22%, 76%, not calculated

## CC(O)CCCCCC(=O)c1ccccc1 (stereo not drawn)
Carcinogen: 4-(METHYLNITROSAMINO)-1-(3-PYRIDYL)-1-BUTANONE, 64091-91-4, Dose [Inhibitor]: 0, 25 UMOL IN 0.1 ML CORN OIL ONCE 2 HR PRIOR TO CARCINOGEN DOSE (STUDY DURATION: 16 WK), Route [Inhibitor]: GAVAGE, Species: MOUSE, Strain/Sex: STRAIN-A/FEMALE, Target Tissue: Type of Lesion: LUNG: ADENOMA, Dose [Carcinogen]: 10 UMOL IN 0.1 ML SALINE ONCE, Promoter: NONE USED
  tumour outcome (control, treated, inhibition, significance): 100%, 100%, 0%, not significant

## CC1(C)CCC2(C(=O)OC3OC(CO)C(O)C(O)C3O)CCC3(CO)C(=CCC4C5(C)CC(O)C(O)C(C)(C(=O)OC6OC(CO)C(O)C(O)C6O)C5CCC43C)C2C1 (stereo not drawn)
Carcinogen: BENZO[A]PYRENE, 50-32-8, Dose [Inhibitor]: 0, 12.85 MG/ML IN DRINKING WATER FOR 6 WK (STUDY DURATION: 9 WK), Route [Inhibitor]: ORAL, Species: MOUSE, Strain/Sex: NIGP(S)/FEMALE, Target Tissue: Type of Lesion: LUNG: ADENOMA, Dose [Carcinogen]: 0.5 MG INJECTED IN THE SCAPULAR REGION OF NEWBORN MICE ONCE, Promoter: NONE USED
  tumour outcome (control, treated, inhibition, significance): 56%, 53%, 5%, not calculated
Carcinogen: BENZO[A]PYRENE, 50-32-8, Dose [Inhibitor]: 0, 12.85 MG/ML IN DRINKING WATER FOR 6 WK (STUDY DURATION: 9 WK), Route [Inhibitor]: ORAL, Species: MOUSE, Strain/Sex: NIGP(S)/MALE, Target Tissue: Type of Lesion: LUNG: ADENOMA, Dose [Carcinogen]: 0.5 MG INJECTED IN THE SCAPULAR REGION OF NEWBORN MICE ONCE, Promoter: NONE USED
  tumour outcome (control, treated, inhibition, significance): 38%, 37%, 3%, not calculated
